Measured values: patent US20110178170A1, “GRISEOFULVIN ANALOGUES FOR THE TREATMENT OF CANCER BY INHIBITION OF CENTROSOMAL CLUSTERING” (DKFZ Deutsches Krebsforschungszentrum, priority 2007, published 2011)

Tests used:
cancer cells = details: compared with griseofulvin; cited from earlier work
tumor cell lines = assay: cell-based screening for inhibition of centrosomal clustering (multipolar mitotic spindles); set-up: species or system human; details: several different tumor cell lines; screening of Penicillium extracts
Excerpt: Supernumerary centrosomes do almost exclusively occur in a wide variety of neoplastic disorders but not in non-transformed cells. Therefore, inhibition of centrosomal clustering with consequential induction of multipolar spindles and subsequent cell death would specifically target tumor cells with no impact on normal cells with a regular centrosome content. To identify cell-permeable small molecules that inhibit centrosomal clustering in cells with supernumerary centrosomes, we developed a cell-based screening strategy founded on the visualization of microtubules and chromatin.
Therefore, we decided to screen a fungal extract library for compounds inhibiting centrosomal clustering. The fungal extracts were selected based on a chemotaxonomic screening approach, in order to increase the chemodiversity to be tested.
The FIGS. 1 to 12 give representative examples of compounds, which have been prepared in the framework of the present invention, together with their activity, which has been determined as described below.
Cell Culture. All cell lines were cultured in Dulbecco's modified Eagle's Medium (DMEM; PAA Laboratories, Pasching, Austria) supplemented with 10% FCS (PAA). […]
Immunofluorescence. […] Immunostained cells were examined using a Zeiss Axiovert 200 M fluorescence microscope (Göttingen, Germany). […]

SMILES | inhibiting effect on cancer cells relative to griseofulvin (cancer cells) | inhibition of centrosome coalescence (tumor cell lines)
CCCOC1=CC(=O)C[C@@H](C)[C@]12Oc1c(Cl)c(OC)cc(OC)c1C2=O | stronger inhibiting effect on cancer cells than griseofulvin itself | 
COC1=CC(=O)C[C@@H](C)[C@]12Oc1c(Cl)c(OC)cc(OC)c1C2=O [griseofulvin, (2-5-trans)-7-chloro-2,4,6-trimethoxy-6-methylspiro-[benzofuran-2(3H), 1-(2)-cyclohexene]-3,4-dione] |  | inhibitor of centrosome coalescence
